Read-outs that look alike come from different tables or passages of the source.
Tests used:
Assay in all cases: stopped-flow CO2 hydrase assay
Format in all cases: biochemical
hCA I = biological target: T1, hCA I (Homo sapiens, UniProt P00915)
T1 construct: gene CA1; purchased from Merck; cytosolic isoform; construct not described
Source text: stopped-flow CO2 hydrase assay on hCA I

hCA IX = biological target: T2, hCA IX (Homo sapiens, UniProt Q16790)
T2 construct: gene CA9; recombinant, made in-house
Source text: stopped-flow CO2 hydrase assay on hCA IX

hCA XII = biological target: T3, hCA XII (Homo sapiens, UniProt O43570)
T3 construct: gene CA12; recombinant, made in-house
T3 sequence (O43570 25-354 limits assumed): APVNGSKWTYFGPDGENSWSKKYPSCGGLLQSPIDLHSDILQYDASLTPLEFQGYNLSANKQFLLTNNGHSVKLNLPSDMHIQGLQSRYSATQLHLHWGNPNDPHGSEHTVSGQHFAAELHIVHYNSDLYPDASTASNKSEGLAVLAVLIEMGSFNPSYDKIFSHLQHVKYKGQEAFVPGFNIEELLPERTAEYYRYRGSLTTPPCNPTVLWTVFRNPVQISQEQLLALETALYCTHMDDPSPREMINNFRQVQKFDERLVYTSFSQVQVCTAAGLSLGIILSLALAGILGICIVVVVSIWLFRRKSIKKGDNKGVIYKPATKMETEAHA
Source text: stopped-flow CO2 hydrase assay on hCA XII

hCA II = biological target: T4, hCA II (Homo sapiens, UniProt P00918)
T4 construct: gene CA2; purchased from Merck; cytosolic isoform; construct not described
Source text: stopped-flow CO2 hydrase assay on hCA II

[1] = CO2 substrate; […] HEPES pH […] Na2SO4, […] min preincubation at room temperature

T1 sequence (P00915 2-261): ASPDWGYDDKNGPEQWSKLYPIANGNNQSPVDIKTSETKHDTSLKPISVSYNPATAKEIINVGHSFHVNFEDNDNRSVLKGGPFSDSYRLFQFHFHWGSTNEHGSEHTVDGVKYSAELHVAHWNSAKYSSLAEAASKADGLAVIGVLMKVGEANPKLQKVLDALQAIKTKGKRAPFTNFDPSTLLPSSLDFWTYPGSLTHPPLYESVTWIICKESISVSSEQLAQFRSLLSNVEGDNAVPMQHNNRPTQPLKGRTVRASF

Structure (SMILES)	Ki (hCA I) [nM]	Ki (hCA IX) [nM]	Ki (hCA XII) [nM]	Ki (hCA II) [nM]	Ki (hCA I; [1]) [nM]	Ki (hCA IX; [1]) [nM]	Ki (hCA XII; [1]) [nM]	Ki (hCA II; [1]) [nM]
NS(=O)(=O)c1cc(C(=O)N2CCN(S(=O)(=O)c3ccc([N+](=O)[O-])cc3)CC2)c(Cl)cc1Cl [compound 8, 2,4‐dichloro‐5‐({4‐[(4‐nitrophenyl)sulfonyl]piperazin‐1‐yl}carbonyl)benzenesulfonamide]	79.9	39.4	7.9	71.2	–	–	–	–
CC(C)(C)OC(=O)N1CCN(C(=O)c2cc(S(N)(=O)=O)c(Cl)cc2Cl)CC1 [compound 2, Tert‐butyl 4‐[(2,4‐dichloro‐5‐sulfamoylphenyl)carbonyl]piperazine‐1‐carboxylate]	85.7	40.1	50.1	3.9	–	–	–	–
CC(=O)Nc1ccc(S(=O)(=O)N2CCN(C(=O)c3cc(S(N)(=O)=O)c(Cl)cc3Cl)CC2)cc1 [compound 10, 5‐({4‐[(4‐acetylaminophenyl)sulfonyl]piperazin‐1‐yl}carbonyl)‐2,4‐dichlorobenzenesulfonamide]	8	40.4	7.2	5.4	–	–	–	–
Nc1ccc(S(=O)(=O)N2CCN(C(=O)c3cc(S(N)(=O)=O)c(Cl)cc3Cl)CC2)cc1 [compound 9, 5‐({4‐[(4‐aminophenyl)sulfonyl]piperazin‐1‐yl}carbonyl)‐2,4‐dichlorobenzenesulfonamide]	5.7	152	6.9	2.6	–	–	–	–
NS(=O)(=O)c1cc(C(=O)N2CCN(S(=O)(=O)Cc3ccccc3)CC2)c(Cl)cc1Cl [compound 16, 5‐{[4‐(benzylsulfonyl)piperazin‐1‐yl]carbonyl}‐2,4‐dichlorobenzenesulfonamide]	0.54	273	0.87	0.07	–	–	–	–
COc1ccc(S(=O)(=O)N2CCN(C(=O)c3cc(S(N)(=O)=O)c(Cl)cc3Cl)CC2)cc1 [compound 6, 2,4‐dichloro‐5‐({4‐[(4‐methoxyphenyl)sulfonyl]piperazin‐1‐yl}carbonyl)benzenesulfonamide]	9.1	40.6	11.6	2.8	–	–	–	–
NS(=O)(=O)c1cc(C(=O)N2CCN(S(=O)(=O)c3ccc(Cl)c(Cl)c3)CC2)c(Cl)cc1Cl [compound 15, 2,4‐dichloro‐5‐({4‐[(3,4‐dichlorophenyl)sulfonyl]piperazin‐1‐yl}carbonyl)benzenesulfonamide]	7.1	39	9.1	5.7	–	–	–	–
NS(=O)(=O)c1cc(C(=O)N2CCN(S(=O)(=O)c3ccc(Cl)cc3)CC2)c(Cl)cc1Cl [compound 7, 2,4‐dichloro‐5‐({4‐[(4‐chlorophenyl)sulfonyl]piperazin‐1‐yl}carbonyl)benzenesulfonamide]	8.2	35.8	5.2	3.4	–	–	–	–
NS(=O)(=O)c1cc(C(=O)O)c(Cl)cc1Cl [compound 1, 2,4‐dichloro‐5‐sulfamoylbenzoic acid]	–	–	–	–	0.52	2.6	7.5	0.33
NS(=O)(=O)c1cc(C(=O)N2CCN(S(=O)(=O)c3ccccc3[N+](=O)[O-])CC2)c(Cl)cc1Cl [compound 13, 2,4‐dichloro‐5‐({4‐[(2‐nitrophenyl)sulfonyl]piperazin‐1‐yl}carbonyl)benzenesulfonamide]	7.8	28.9	7.2	0.3	–	–	–	–
Nc1cccc(S(=O)(=O)N2CCN(C(=O)c3cc(S(N)(=O)=O)c(Cl)cc3Cl)CC2)c1 [compound 12, 5‐({4‐[(3‐aminophenyl)sulfonyl]piperazin‐1‐yl}carbonyl)‐2,4‐dichlorobenzenesulfonamide]	5.8	26.3	5.4	0.8	–	–	–	–
Nc1ccccc1S(=O)(=O)N1CCN(C(=O)c2cc(S(N)(=O)=O)c(Cl)cc2Cl)CC1 [compound 14, 5‐({4‐[(2‐aminophenyl)sulfonyl]piperazin‐1‐yl}carbonyl)‐2,4‐dichlorobenzenesulfonamide]	5.4	11.4	9.6	2.8	–	–	–	–
Cc1ccc(S(=O)(=O)N2CCN(C(=O)c3cc(S(N)(=O)=O)c(Cl)cc3Cl)CC2)cc1 [compound 5, 2,4‐dichloro‐5‐({4‐[(4‐methylphenyl)sulfonyl]piperazin‐1‐yl}carbonyl)benzenesulfonamide]	64	340	62.4	29	–	–	–	–
NS(=O)(=O)c1cc(C(=O)N2CCN(S(=O)(=O)c3cccc([N+](=O)[O-])c3)CC2)c(Cl)cc1Cl [compound 11, 2,4‐dichloro‐5‐({4‐[(3‐nitrophenyl)sulfonyl]piperazin‐1‐yl}carbonyl)benzenesulfonamide]	6.2	37.7	7.8	6.6	–	–	–	–
NS(=O)(=O)c1cc(C(=O)N2CCN(S(=O)(=O)c3ccccc3)CC2)c(Cl)cc1Cl [compound 4, 2,4‐dichloro‐5‐{[4‐(phenylsulfonyl)piperazin‐1‐yl]carbonyl}benzenesulfonamide]	9.4	39.7	7.1	7.4	–	–	–	–

Reference: article PMC11648825, “Lasamide Containing Sulfonylpiperazines as Effective Agents for the Management of Glaucoma Associated Symptoms” (Chemmedchem, 2024)
